Where “and” joins values, the source holds several entries; their conditions need not be identical. Equal values may be shown once.
Assays:
[1] = molecular target: T1, Alpha-2C adrenergic receptor (Homo sapiens, UniProt P18825)
T1 sequence (P18825 whole entry): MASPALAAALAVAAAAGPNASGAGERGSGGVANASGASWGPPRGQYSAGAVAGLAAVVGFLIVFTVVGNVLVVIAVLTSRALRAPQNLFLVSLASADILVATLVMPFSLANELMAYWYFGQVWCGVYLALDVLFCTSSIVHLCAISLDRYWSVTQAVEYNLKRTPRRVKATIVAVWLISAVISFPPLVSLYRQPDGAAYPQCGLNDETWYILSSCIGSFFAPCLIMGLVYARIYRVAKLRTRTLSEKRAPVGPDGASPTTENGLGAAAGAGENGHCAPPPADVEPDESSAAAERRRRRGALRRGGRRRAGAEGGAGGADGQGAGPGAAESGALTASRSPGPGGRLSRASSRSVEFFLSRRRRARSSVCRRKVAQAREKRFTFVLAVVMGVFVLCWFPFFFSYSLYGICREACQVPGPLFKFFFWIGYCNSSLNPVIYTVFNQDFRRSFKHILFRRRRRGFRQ

[2] = molecular target: T2, Alpha-2A adrenergic receptor (Mus musculus, UniProt Q1HL33)
T2 sequence (Q1HL33 whole entry): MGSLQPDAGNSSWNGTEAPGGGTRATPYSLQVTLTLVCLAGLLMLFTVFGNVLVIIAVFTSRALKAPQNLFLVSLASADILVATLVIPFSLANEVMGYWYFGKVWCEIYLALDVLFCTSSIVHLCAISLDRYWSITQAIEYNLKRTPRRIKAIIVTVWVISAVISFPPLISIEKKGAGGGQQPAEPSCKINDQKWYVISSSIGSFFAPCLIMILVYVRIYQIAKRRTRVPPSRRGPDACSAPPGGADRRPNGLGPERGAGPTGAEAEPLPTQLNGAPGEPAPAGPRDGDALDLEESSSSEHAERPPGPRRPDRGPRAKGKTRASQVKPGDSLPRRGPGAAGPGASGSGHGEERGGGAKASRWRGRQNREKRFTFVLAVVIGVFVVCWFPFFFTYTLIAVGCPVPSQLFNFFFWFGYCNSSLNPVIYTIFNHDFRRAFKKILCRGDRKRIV

[3] = molecular target: T3, Alpha-2A adrenergic receptor (Homo sapiens, UniProt P08913)
T3 sequence (P08913 whole entry): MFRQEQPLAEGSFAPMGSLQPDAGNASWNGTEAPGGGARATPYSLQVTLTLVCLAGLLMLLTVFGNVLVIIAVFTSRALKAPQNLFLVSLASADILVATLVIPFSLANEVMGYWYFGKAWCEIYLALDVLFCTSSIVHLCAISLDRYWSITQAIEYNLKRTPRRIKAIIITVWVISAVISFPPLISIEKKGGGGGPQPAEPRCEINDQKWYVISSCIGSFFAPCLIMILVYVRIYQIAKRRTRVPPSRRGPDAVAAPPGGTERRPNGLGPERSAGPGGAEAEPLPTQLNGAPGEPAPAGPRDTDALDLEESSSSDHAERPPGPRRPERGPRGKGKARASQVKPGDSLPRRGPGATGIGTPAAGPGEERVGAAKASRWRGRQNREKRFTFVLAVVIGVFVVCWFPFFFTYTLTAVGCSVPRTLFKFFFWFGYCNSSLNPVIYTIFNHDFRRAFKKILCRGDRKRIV

Row | SMILES | Ki [1] [nM] | Ki [2] | Ki [3] [nM]
1 | NCC(O)c1ccc(O)c(O)c1 (stereo not drawn) [Noradrenaline,(+)] | 1350 | 1410 nM | –
2 | Cc1cccc(C)c1N=C1NCCCS1 [(5,6-Dihydro-4H-[1,3]thiazin-2-yl)-(2,6-dimethyl-phenyl)-amine] | > 10000 | 2400 nM | 5750
3 | Fc1cccc(Cl)c1C1CC2=NCCN2C1 (centres undefined) [CAS_67249-51-8] | 282 | – | 7.94
4 | CN1CCC2(CCN3CCc4c(oc5ccccc45)C3C2)N(C)C1=O (centres undefined) [MK-912] | 0.07 | – | 0.85
5 | Cc1cccc([C@@H](C)c2cnc[nH]2)c1C | 95.5 | 3.39 nM | –
6 | C=CCN1CCc2nc(N)sc2CC1 [B-HT 920] | 955 | – | 398
7 | COC1(C2=NCCN2)COc2ccccc2O1 (centres undefined) [RX821002] | 0.79 | 0.62 nM | 0.36
8 | c1cc2c(c(NC3=NCCN3)c1)CCCC2 | 275 | 15.5 nM | 31.6
9 | CC(C)NCC(O)c1ccc(O)c(O)c1 (stereo not drawn) [Isoproterenol,(+)] | – | > 10000 nM | –
10 | CC(N)C(O)c1ccc(O)c(O)c1 (stereo not drawn) [alpha-Methyl-(+/-)norepinephrine,(+/-)] | 2880 | – | 3630
11 | Cc1cc(C(C)(C)C)cc(C)c1CC1=NCCN1 [SMR000058526] | 129 | 25.7 nM and 24 nM | 15.1
12 | C1COC(NC(C2CC2)C2CC2)=N1 [rilmenidine] | 4680 | 724 nM | 1580
13 | Nc1cc(Cl)c(N=C2NCCN2)c(Cl)c1 [p-AMINOCLONIDINE] | 21.4 | – | 7.94
14 | Cc1cc(C(C)(C)C)c(O)c(C)c1CC1=NCCN1 [SMR000059324] | – | 15.5 nM and 25.7 nM | –
15 | CCn1ccnc1CC1COc2ccccc2O1 (centres undefined) [NSC_133621] | 151 | – | 316
16 | C=CCN(C1=NCCN1)c1c(Cl)cccc1Cl [CAS_33178-86-8] | > 10000 | – | 6030
17 | c1ccc2c(CC3=NCCN3)cccc2c1 [Naphazoline] | 407 | 11.5 nM and 17 nM | 20.9
18 | Oc1ccc2c(c1O)CCC[C@@H]2C1=NCCN1 [A-54741] | 776 | 9.77 nM | –
19 | CCc1cccc(CC)c1NC1=NCCN1 [ST 91] | 617 | 537 nM | 575
20 | C[C@@H](Oc1c(Cl)cccc1Cl)C1=NCCN1 [CAS_81447-78-1] | 174 | – | –
21 | N=C(N)NC(=O)Cc1c(Cl)cccc1Cl [NSC_3519] | – | 20.4 nM | –
22 | Clc1cccc(Cl)c1N=C1NCCN1 [2-(2,6-dichloroanilino)-2-imidazoline] | – | 40.7 nM | –
23 | c1ccc2ccccc2c1 [naphtaline] | 3.31 | 7.76 nM and 9.33 nM | 4.57

Source: BindingDB's records for doi:10.1016/s0006-2952(97)00631-x (Roche Bioscience, 1998)
